Peptide text beside a SMILES is read from it.
What was measured:
KDM7A Dual (PHD+JmjC) = KDM7A Dual (PHD+JmjC) (Homo sapiens, UniProt Q6ZMT4); assay: BLI binding; details: 1:1 binding model
From the text: (§1) Figure S2. BLI for KDM7 proteins with cyclic peptides.
(§2) BLI traces for b inding to KDM7 protein domains immobilised by C-terminal His -tag on Ni -NTA
(§3) biosensors, against cyclic peptides. Response trace for each peptide concentration is represented by
(§4) a different colour, with the fitted curves overlaid in black.
(§5) concentration plotted, with 2-fold dilutions thereafter. Dual domain = PHD+JmjC. […]
(§6) against KDM7 and other protein domains. t1/2 = half life (0.693 / Koff)
(§7) (1 picture or pasted object on this page, not shown here)

KDM7A PHD [1] = molecular target: T1, KDM7A PHD (Homo sapiens, UniProt Q6ZMT4); assay: BLI binding; details: 1:1 binding model
T1 construct: KDM7A 38-98; made in house
T1 sequence (Q6ZMT4 38-98): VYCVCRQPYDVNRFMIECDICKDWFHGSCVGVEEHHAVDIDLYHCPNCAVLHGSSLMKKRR
From the text: as §1, §2, §3, §4, §5, §6, §7

KDM7C Dual (PHD+JmjC) = KDM7C Dual (PHD+JmjC) (Homo sapiens, UniProt O75151); assay: BLI binding; details: 1:1 binding model
From the text: as §1, §2, §3, §4, §5, §6, §7

KDM7C PHD = molecular target: T2, KDM7C PHD (Homo sapiens, UniProt O75151); assay: BLI binding; details: 1:1 binding model
T2 construct: KDM7C 1-67; made in house
T2 sequence (O75151 1-67): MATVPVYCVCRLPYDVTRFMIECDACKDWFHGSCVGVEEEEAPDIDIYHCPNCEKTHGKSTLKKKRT
From the text: as §1, §2, §3, §4, §5, §6, §7

KDM7B Dual (PHD+JmjC) = molecular target: T3, KDM7B Dual (PHD+JmjC) (Homo sapiens, UniProt Q9UPP1); assay: BLI binding; set-up: key to BLI Screening, KDM7B Dual: (+) = binding; (-) = no binding; (NS) = non-specific
T3 construct: Dual domain = PHD+JmjC; made in house
From the text: as §1, §2, §3, §4, §5, §6, §7

KDM7A PHD [2] = molecular target: T1, KDM7A PHD; assay: AlphaScreen displacement of H3 1-21K4me3-Bt; assay type: binding; details: average of two independent experiments
From the text: (§8) The functional effect of OC9 on the PHD-finger was further assessed using an AlphaScreen (AS) based proximity assay. […]

KDM7A PHD+JmjC = KDM7A PHD+JmjC (Homo sapiens, UniProt Q6ZMT4); assay: AlphaScreen displacement of H3 1-21K4me3-Bt; assay type: binding; details: average of two independent experiments
From the text: as §8

KDM7B PHD+JmjC = molecular target: T4, KDM7B PHD+JmjC (Homo sapiens, UniProt Q9UPP1); assay: AlphaScreen displacement of H3 1-21K4me3-Bt; assay type: binding; details: average of two independent experiments
T4 construct: dual domain (PHD-JmjC) of KDM7B; made in house
From the text: as §8

DIDO PHD = molecular target: T5, DIDO PHD (Homo sapiens, UniProt Q9BTC0); assay: AlphaScreen displacement of H3 1-21K4me3-Bt; assay type: binding; details: average of two independent experiments
T5 construct: DIDO PHD
T5 sequence (Q9BTC0 268-322 limits assumed): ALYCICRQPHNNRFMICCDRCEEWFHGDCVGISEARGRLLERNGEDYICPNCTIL
From the text: (§9) (14 pictures or pasted objects on this page, not shown here)

ING2 PHD = molecular target: T6, ING2 PHD (Homo sapiens, UniProt Q9H160); assay: AlphaScreen displacement of H3 1-21K4me3-Bt; assay type: binding; details: once at least in duplicate (Fig. 3c)
T6 construct: ING2 PHD
From the text: as §9

KDM5A PHD3 = molecular target: T7, KDM5A PHD3 (Homo sapiens, UniProt P29375); assay: AlphaScreen displacement of H3 1-21K4me3-Bt; assay type: binding; details: once at least in duplicate (Fig. 3c)
T7 construct: KDM5A PHD3
From the text: as §9

SPIN1 TTD = SPIN1 TTD (Homo sapiens, UniProt Q9Y657); assay: AlphaScreen displacement of H3 1-21K4me3-Bt; assay type: binding; details: once at least in duplicate (Fig. 3c)
From the text: as §9

TAF3 PHD = molecular target: T8, TAF3 PHD (Homo sapiens, UniProt Q5VWG9); assay: AlphaScreen displacement of H3 1-21K4me3-Bt; assay type: binding; details: once at least in duplicate (Fig. 3c)
T8 construct: TAF3 PHD
From the text: as §9

KDM7B dual domain = molecular target: T9, KDM7B dual domain (Homo sapiens, UniProt Q9UPP1); assay: AlphaScreen demethylation assay; assay type: biochemical
T9 construct: dual domain (PHD-JmjC) of KDM7B; His-tag (C); made in house
From the text: We tested the effect of OC9 on KDM7B demethylation of H3_1–21K4me3K9me2 and the less-efficient H3_1–21K9me2 substrate by MALDI-TOF MS based assay.[14,19] […] Inhibition by OC9 was further confirmed by an orthogonal AS activity assay[58] (Fig. S41 ^†). […] As KDM7B aromatic cage mutation results in the same phenotypic outcome as JmjC catalytic site inactivation (e.g. KDM7B demethylase-dependent melanoma metastasis[20]), our results emphasise the crucial role of PHD-fingers in regulating KDM7 demethylase activity and the need to explore PHD-finger viability as therapeutic targets.

KDM2/3/4/5/6 = assay: KDM selectivity screening by MALDI-TOF-MS; assay type: biochemical; details: histone peptide substrates; incl. full-length KDM2A and KDM2B
From the text: The panel included full-length recombinant KDM2A and KDM2B which have the closest JmjC-domains to KDM7s, but with unrelated PHD-fingers (Fig. S43 and S44 ^†).

Caco-2 cell = assay: Cell permeability measurement (Caco-2); assay type: in vitro ADME
[3] = system: SUP-T1 nuclear lysate proteins; assay: Pull-down and proteomics from SUP-T1 nuclear lysate; assay type: binding; details: 1 μM OC9-Bt, 454 proteins identified
Protocol: Fig. 6 Selective capture of full-length KDM7 with OC9-Bt in nuclear lysates. (a) OC9-Bt, H3K4me3-Bt and Bt were used as affinity probes in HEK293T nuclear lysates, transiently transfected with wild type KDM7B, or PHD-finger mutant (Y14A, W29A). Capture was performed with 1 μM probe incubated in pre-cleared lysate, recovered with streptavidin-conjugated magnetic beads, then washed and eluted by heating in denaturing solution. 100-fold excess OC9 or OC9 V10A were used as competitors. […] (Left) Change in all protein (454) recoveries with competition by titration of unlabelled OC9. (Right) Volcano plot comparing relative abundance of pull-down content at 0 and 20 μM competition. The upper left quadrant indicates >5-fold difference in recovered protein (based on T-test difference of mean log 2 (LFQ) values) and p-value threshold <0.05.
A further chemoproteomic profiling analysis of endogenous protein capture by OC9-Bt from KDM7B-expressing T-cell lymphoblastic lymphoma SUP-T1 nuclear lysates[67] identified 454 proteins.

[4] = His-tagged protein on Ni-NTA biosensors

Sequence of KDM7C Dual (PHD+JmjC) (O75151 1-353 limits assumed): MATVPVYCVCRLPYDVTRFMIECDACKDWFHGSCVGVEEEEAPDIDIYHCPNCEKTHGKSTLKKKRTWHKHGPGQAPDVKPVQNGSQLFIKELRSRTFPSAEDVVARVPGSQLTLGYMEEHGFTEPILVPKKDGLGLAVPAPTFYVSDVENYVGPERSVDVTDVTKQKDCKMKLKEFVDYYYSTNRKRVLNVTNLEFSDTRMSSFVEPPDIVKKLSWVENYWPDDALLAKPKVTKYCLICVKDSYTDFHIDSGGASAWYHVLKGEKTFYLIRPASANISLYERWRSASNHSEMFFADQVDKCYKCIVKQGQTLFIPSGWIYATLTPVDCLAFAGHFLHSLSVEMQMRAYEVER
Sequence of KDM7A Dual (PHD+JmjC) (Q6ZMT4 38-386 limits assumed): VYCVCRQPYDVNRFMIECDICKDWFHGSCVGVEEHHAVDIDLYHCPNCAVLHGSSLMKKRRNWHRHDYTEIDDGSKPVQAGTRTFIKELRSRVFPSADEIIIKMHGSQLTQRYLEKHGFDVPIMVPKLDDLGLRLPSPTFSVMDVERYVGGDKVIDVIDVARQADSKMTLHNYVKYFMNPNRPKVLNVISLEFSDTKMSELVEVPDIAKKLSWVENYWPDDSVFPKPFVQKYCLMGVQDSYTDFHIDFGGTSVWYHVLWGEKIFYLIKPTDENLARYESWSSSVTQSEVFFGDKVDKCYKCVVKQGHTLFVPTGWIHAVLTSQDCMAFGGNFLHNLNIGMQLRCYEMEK
T3 sequence (Q9UPP1 37-483 limits assumed): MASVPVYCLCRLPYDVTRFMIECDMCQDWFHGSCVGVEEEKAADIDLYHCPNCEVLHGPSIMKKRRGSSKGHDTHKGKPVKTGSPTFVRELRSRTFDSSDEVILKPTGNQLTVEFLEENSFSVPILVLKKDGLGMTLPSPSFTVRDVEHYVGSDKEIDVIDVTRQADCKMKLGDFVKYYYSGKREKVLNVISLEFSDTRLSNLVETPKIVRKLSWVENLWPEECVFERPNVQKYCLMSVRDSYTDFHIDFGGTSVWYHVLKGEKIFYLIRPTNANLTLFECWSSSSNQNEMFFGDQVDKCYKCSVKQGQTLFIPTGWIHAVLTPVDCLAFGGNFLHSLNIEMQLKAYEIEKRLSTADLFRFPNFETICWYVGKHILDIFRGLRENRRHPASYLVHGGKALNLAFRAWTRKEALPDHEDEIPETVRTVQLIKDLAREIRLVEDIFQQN
Sequence of KDM7A PHD+JmjC (Q6ZMT4 38-386 limits assumed): as the sequence (Q6ZMT4 38-386 limits assumed) above
T8 sequence (Q5VWG9 865-915 limits assumed): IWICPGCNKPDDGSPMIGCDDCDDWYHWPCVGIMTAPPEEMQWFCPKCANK
Sequence of SPIN1 TTD (Q9Y657 53-262 limits assumed): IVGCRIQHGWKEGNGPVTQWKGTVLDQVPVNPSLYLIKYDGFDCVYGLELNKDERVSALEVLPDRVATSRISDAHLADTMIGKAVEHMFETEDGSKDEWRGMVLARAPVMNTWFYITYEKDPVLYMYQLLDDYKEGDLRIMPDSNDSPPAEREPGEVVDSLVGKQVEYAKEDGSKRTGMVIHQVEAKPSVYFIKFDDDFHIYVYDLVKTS
T6 sequence (Q9H160 212-261 limits assumed): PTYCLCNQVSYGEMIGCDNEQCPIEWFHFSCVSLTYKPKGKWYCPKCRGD
T4 sequence (Q9UPP1 37-483 limits assumed): as the sequence (Q9UPP1 37-483 limits assumed) above
T9 sequence (Q9UPP1 37-483 limits assumed): as above
T7 sequence (P29375 1607-1661 limits assumed): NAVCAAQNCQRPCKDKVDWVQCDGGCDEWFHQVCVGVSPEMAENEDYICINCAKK

With CC(C)C[C@@H]1NC(=O)[C@H](Cc2ccc(O)cc2)NC(=O)[C@H](Cc2ccc(O)cc2)NC(=O)CSC[C@@H](C(N)=O)NC(=O)[C@H]([C@@H](C)O)NC(=O)[C@H](CCCNC(=N)N)NC(=O)[C@H](Cc2ccccc2)NC(=O)[C@H](C(C)C)NC(=O)[C@H](CO)NC(=O)[C@@H]2CCCN2C(=O)[C@H](Cc2ccc(O)cc2)NC(=O)[C@@H]2CCCN2C(=O)[C@H](Cc2c[nH]cn2)NC(=O)[C@H]([C@@H](C)O)NC1=O [OC9] (HELM PEPTIDE1{[O=C(C[*:3])[*:2]].Y.Y.L.T.H.P.Y.P.S.V.F.R.T.C.[am]}$PEPTIDE1,PEPTIDE1,1:R3-15:R3$$$V2.0) the koff (KDM7A Dual (PHD+JmjC)) was 0.0123 ± 0.0001 s⁻¹, the kon (KDM7A Dual (PHD+JmjC)) was 289000 ± 3000 M⁻¹ s⁻¹ and the Kd (KDM7A Dual (PHD+JmjC); [4]) was 42.5 nM. For the same compound, the koff (KDM7A PHD [1]) was 0.00679 ± 2e-05 s⁻¹, the kon (KDM7A PHD [1]) was 358000 ± 3000 M⁻¹ s⁻¹ and the Kd (KDM7A PHD [1]; [4]) was 19 nM. For the same compound, the koff (KDM7C Dual (PHD+JmjC)) was 0.000137 ± 1e-06 s⁻¹, the kon (KDM7C Dual (PHD+JmjC)) was 409000 ± 2000 M⁻¹ s⁻¹ and the Kd (KDM7C Dual (PHD+JmjC); read-out: BLI pKD, KDM7C Dual (converted)) was 0.316 nM. For the same compound, the koff (KDM7C PHD) was 0.000483 ± 2e-06 s⁻¹, the kon (KDM7C PHD) was 463000 ± 2000 M⁻¹ s⁻¹ and the Kd (KDM7C PHD; [4]) was 1.05 nM. The koff (KDM7B Dual (PHD+JmjC); 1:1 binding model) was 0.00413 ± 3e-05 s⁻¹, the kon (KDM7B Dual (PHD+JmjC); 1:1 binding model) was 691000 ± 7000 M⁻¹ s⁻¹ and the Kd (KDM7B Dual (PHD+JmjC); His-tagged protein on Ni-NTA biosensors, 1:1 binding model) was 5.98 nM. The “BLI Screening, KDM7B Dual” value (KDM7B Dual (PHD+JmjC); qualitative assessment of binding by BLI) was “+”, the IC50 (KDM7A PHD [2]) was 62 nM and the IC50 (KDM7A PHD+JmjC) was 132 nM. For the same compound, the IC50 (KDM7B PHD+JmjC) was 95 nM, the “AlphaScreen displacement IC50, DIDO PHD” value (DIDO PHD) was “no measurable affinity” and the IC50 (DIDO PHD) was > 10000 nM. The IC50 (ING2 PHD) was > 5000 nM, the IC50 (KDM5A PHD3) was > 5000 nM and the IC50 (SPIN1 TTD) was > 2000 nM. For the same compound, the IC50 (TAF3 PHD) was > 5000 nM, the “inhibition of KDM7B demethylase in orthogonal AS activity assay” value (KDM7B dual domain) was “Inhibition” and the “inhibition of other isolated KDM sub-families (KDM2/3/4/5/6)” value (KDM2/3/4/5/6) was “no significant inhibition”. The “permeability in Caco-2 cell assay” value (Caco-2 cell) was “negligible permeability” and the “proteins competed from OC9-Bt pull-down by titration of unlabelled OC9” value [3] was “Only the relative abundance of KDM7B and KDM7C were significantly affected”.

Reference: article PMC10321576, “Cyclic peptides target the aromatic cage of a PHD-finger reader domain to modulate epigenetic protein function” (Chemical Science, 2023)
